# According to patent US7815905B2, “Methods of increasing insulin sensitivity or decreasing insulin secretion by administering corticotropin releasing factor receptor-2 inhibitors” (Research Development Foundation, priority 2006, dated 2010):
# “Also recorded” adds a separate entry of the source.
# Experiments:
# isolated rat islets [1] = test: Insulin secretion from isolated rat islets; type: cell-based; settings: exendin-4 10 nM + 8.4 mM glucose; listed as Ast2-B
# [2] = Rivier et al., 2003; cited from earlier work
# CRFR2 = molecular target: T1, CRFR2 (Homo sapiens, UniProt Q13324); settings: Rivier et al. 2002; cited from earlier work
# T1 sequence (Q13324 1-411): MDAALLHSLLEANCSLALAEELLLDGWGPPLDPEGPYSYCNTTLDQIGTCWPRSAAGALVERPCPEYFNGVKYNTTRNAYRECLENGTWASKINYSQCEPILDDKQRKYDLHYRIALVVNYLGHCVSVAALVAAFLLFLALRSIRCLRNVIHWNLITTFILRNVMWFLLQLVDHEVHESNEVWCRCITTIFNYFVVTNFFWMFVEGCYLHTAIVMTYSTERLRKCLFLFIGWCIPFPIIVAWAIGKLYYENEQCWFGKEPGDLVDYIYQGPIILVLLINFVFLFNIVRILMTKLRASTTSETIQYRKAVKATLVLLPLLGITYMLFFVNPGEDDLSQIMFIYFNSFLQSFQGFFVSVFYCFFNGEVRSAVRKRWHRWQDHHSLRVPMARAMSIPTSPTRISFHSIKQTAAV
# isolated rat islets [3] = test: Insulin secretion from isolated rat islets; type: cell-based; settings: isolated rat islets; for insulin secretion induced by 16.8 mM glucose: pretreated
# Procedure: FIG. 4a-b: The effect of CRFR2 antagonist on insulin secretion in isolated rat islets. (a) The effect of astressin2B (Ast2-B) on insulin secretion in response to glucose in isolated rat islets. […] The asterisk indicates a statistically significant difference between results from the control versus Ast2-B. (b) Isolated rat isles were pre-treated with anti-Ucn 3 IgG or control IgG followed by addition of indicated concentration of glucose. Y-axis indicates insulin secretion from the treated islets. The double asterisks indicate a statistically significant difference between the indicated treatments. […]
# To assess the effect of CRFR2 antagonism on islet cell function secretion of insulin from isolated rat islets was studied. […] Thus, activation of CRFR2 by endogenous ligands is involved in insulin secretion induced by high levels of glucose.
# In order to determine the role of Ucn 3 in glucose induced insulin secretion, isolated rat islets were pretreated with an anti-Ucn 3 IgG prior to glucose treatment.
# male rats = test: Glucose induced insulin release in vivo in male rats; design: species or system rat
# Procedure: FIG. 9a-c: The effects of CRFR2 signaling on insulin secretion. […] Plasma insulin (b) and glucose (c) levels in male rats treated with vehicle or Ast2-B (0.09-9 nmol/kg). *, P<0.05 vs. vehicle.
# In order to determine whether blocking of CRFR2 function also modulates glucose induced insulin release in vivo, various doses of Ast2-B (0.09-9 nmol/kg) or vehicle were injected intravenously into male rats through a jugular vein cannula 20 min before injection of a glucose (2.8 mmol/kg) bolus.
# wild type mice = test: Glucose tolerance test (GTT) in wild type mice; type: in vivo, mouse; settings: fasted male wild type mice; 30 μg/kg IP 20 min prior to glucose 2 g/kg
# Procedure: FIG. 1a-f: Metabolic phenotype of Ucn 2 null mice. […] The ability of the Ucn 2 null mice and wild type littermates to handle a glucose load was assessed using a standard glucose tolerance test (see example 1). Fasted male mice were injected intraperitoneally (IP) with glucose (2 g/kg body weight) and blood glucose levels were measured before and at 15, 30, 60, 90 and 120 min following glucose injection. […] Fasted male Ucn 2 null mice were injected IP with saline or with 0.1 μg/kg body weight Ucn 2, 20 min prior to glucose injection (2 g/kg body weight) and blood glucose levels were measured before and at 15, 30, 60 and 90 min following glucose injection. […] Fasted male wild type mice were injected IP with saline or with astressin2B (30 μg/kg body weight), 20 min prior to glucose injection (2 g/kg body weight), and blood glucose levels were measured before and at 15, 30, 60 and 90 min following glucose injection. (d) The enhanced glucose tolerance in the Ucn 2 null mice is not due to increased insulin secretion. Fasted male mice were injected with glucose (3 g/kg body weight, IP) and blood samples were collected at 2, 5, 15 and 30 min following glucose injection and insulin was measured by radioimmunoassay. […] Fasted male mice were injected with insulin (0.75 U/kg body weight, IP) and blood glucose levels were measured before and at 15, 30, 60 and 90 min following insulin injection. […]
substance,measurement,setting,value
"astressin2B: CRFR2 selective antagonist; modified sauvagine polypeptide (SEQ ID NO:10), Rivier et al., 2002",Exendin-4 stimulated insulin release,isolated rat islets [1],greatly attenuated; also recorded: the effect was attenuated
same,crossing of the blood brain barrier,[2],unlikely to cross the blood brain barrier
same,time of administration needed for CRFR2 antagonist activity,CRFR2,active when administered concurrently with the CRFR2 agonist
same,insulin secretion induced by 16.8 mM glucose,isolated rat islets [3],has CRFR2 antagonist activity
same,insulin secretion induced by 16.8 mM glucose,isolated rat islets [3]; listed as Ast2-B,significantly attenuated; also recorded: attenuated by Ast2-B in a dose-dependent manner
same,insulin secretion induced by 16.8 mM glucose,isolated rat islets [3]; listed as astressin-2B,attenuates 16.8 mM glucose-induced insulin secretion in a dose-dependent manner
same,insulin release induced by 2.8 mM glucose,isolated rat islets [3]; 2.8 mM glucose,did not affect
same,insulin secretion induced by 8.4 mM glucose,isolated rat islets [3],did not significantly modify
same,insulin secretion induced by 8.4 mM glucose,isolated rat islets [3]; listed as Ast2-B,did not affect
same,insulin release induced by 10 mM glucose,isolated rat islets [3]; 10 mM glucose,did not affect
same,"glucose-induced insulin secretion, highest dose compared to 0.9 nmol/kg",male rats; 9 nmol/kg intravenously,slightly less effective
same,plasma glucose levels,male rats; 0.09-9 nmol/kg intravenously 20 min before glucose 2.8 mmol/kg bolus,mirrored the results of insulin
same,glucose-induced insulin secretion (plasma insulin),"male rats; 0.09-9 nmol/kg intravenously 20 min before glucose 2.8 mmol/kg bolus, listed as Ast2-B",attenuated glucose-induced insulin secretion in a dose dependent manner; also recorded: attenuates glucose induced insulin secretion
same,glucose tolerance test profile,wild type mice,has CRFR2 antagonist activity; also recorded: mirrors that of Ucn 2 null mice; also recorded: mimics the Ucn 2 mutant mice glucose tolerance test profile
